The values that follow come from US20170334899A1, “AMINO-SUBSTITUTED ISOTHIAZOLES” (Bayer Pharma Aktiengesellschaft, priority 2014, published 2017).

For test [1], the system named is human cervical tumor cell line HeLa (ATCC CCL-2). In words: SAC-Formation - Paclitaxel-Induced Assay. Particulars: Homo sapiens, HeLa, 24 h, HeLa cells, paclitaxel 0.05 μM, test range 0.005 μM-20 μM, read-out: IC50 [mol/l] SAC-Formation - Paclitaxel-Induced Assay. Type of test: cell-based. Put shortly: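 Read-out is high-content imaging of anti-phospho-H3 Ser10 (mitosis) and Hoechst 33342 (DNA, cell number), with decreased mitotic fraction marking checkpoint breakthrough. Compounds (0.005–20 μM) and 0.05 μM paclitaxel co-added to overnight-plated HeLa for 24 h at 37° C; four-parameter Hill fit.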

For a further test, the system named is HeLa. The test is described as follows: Proliferation assay (crystal violet), HeLa. The format is cell-based. Particulars: Homo sapiens, HeLa, 96 h, HeLa cells; 4 days incubation; crystal violet staining; read-out: IC50 inhibition of proliferation, HeLa. Put shortly:
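Four-day compound exposure (0.001-10 μM, 0.5% DMSO final) began 24 h after seeding 1000-5000 cells/well in medium with 10% fetal calf serum. Cell number read by crystal violet absorbance at 595 nm, scaled between day-zero plate and untreated control; 4-parameter fit gave IC50.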

On to `Cc1nsc(Nc2cnc(C(F)(F)F)cn2)c1C(=O)Nc1ccc(F)c(OC2CCN(CCF)CC2)c1` [Example 266, N-(4-fluoro-3-{[1-(2-fluoroethyl)piperidin-4-yl]oxy}phenyl)-3-methyl-5-{[5-(trifluoromethyl)pyrazin-2-yl]amino}-1,2-thiazole-4-carboxamide], for which the values for the IC50 (in test [1]; in the test with HeLa) were 160 nM and 310 nM, respectively.

With `Cc1nsc(Nc2cnc3ccccc3n2)c1C(=O)Nc1cccc(NS(=O)(=O)C2CN(CC(F)(F)F)C2)c1` [Example 285, 3-methyl-5-(quinoxalin-2-ylamino)-N-[3-({[1-(2,2,2-trifluoroethyl)azetidin-3-yl]sulfonyl}amino)phenyl]-1,2-thiazole-4-carboxamide], the values for the IC50 (in test [1]; in the test on HeLa) were 6100 nM and more than 10000 nM, respectively.

In the case of `Cc1nsc(Nc2cnc3ccccc3n2)c1C(=O)Nc1cccc(NS(=O)(=O)C2CCN(CCC(F)(F)F)CC2)c1` [Example 283, 3-methyl-5-(quinoxalin-2-ylamino)-N-[3-({[1-(3,3,3-trifluoropropyl)piperidin-4-yl]sulfonyl}amino)phenyl]-1,2-thiazole-4-carboxamide], the IC50 in test [1] was 7100 nM; in the test with HeLa, 8400 nM.

In the case of `Cc1nsc(Nc2cnc(C(F)(F)F)cn2)c1C(=O)Nc1ccc(OC2CCN(CC(F)F)C2)nc1` (stereo not drawn) [Example 296, N-(6-{[1-(2,2-difluoroethyl)pyrrolidin-3-yl]oxy}pyridin-3-yl)-3-methyl-5-{[5-(trifluoromethyl)pyrazin-2-yl]amino}-1,2-thiazole-4-carboxamide], the IC50 was determined as 300 nM in test [1] and 600 nM in the test with HeLa.

Regarding `Cc1nsc(Nc2cnc(C(F)(F)F)cn2)c1C(=O)Nc1ccc(OCCNCCF)nc1` [Example 321, N-(6-{2-[(2-fluoroethyl)amino]ethoxy}pyridin-3-yl)-3-methyl-5-{[5-(trifluoromethyl)pyrazin-2-yl]amino}-1,2-thiazole-4-carboxamide], the IC50 in test [1] was determined as 1100 nM; in the test with HeLa, 3400 nM.

In the case of `COC(=O)CCCc1ccc(NC(=O)c2c(C)nsc2Nc2cc(C#N)ccn2)cc1` [Example 256, methyl 4-{4-[({5-[(4-cyanopyridin-2-yl)amino]-3-methyl-1,2-thiazol-4-yl}carbonyl)amino]phenyl}butanoate], the results for the IC50 (in test [1]; in the test on HeLa) were 3600 nM and more than 10000 nM, respectively.

As to `CCN1CCC(Oc2ccc(NC(=O)c3c(C)nsc3Nc3cc(C#N)ccn3)cn2)CC1` [Example 26, 5-[(4-Cyanopyridin-2-yl)amino]-N-{6-[(1-ethylpiperidin-4-yl)oxy]pyridin-3-yl}-3-methyl-1,2-thiazole-4-carboxamide], the values for the IC50 (in test [1]; in the test with HeLa) were 20000 nM and 10000 nM, respectively.

For the molecule `Cc1nsc(Nc2ccc(C#N)cn2)c1C(=O)Nc1ccc(OC2CCN(C(=O)OC(C)(C)C)CC2)nc1` [Example 27, tert-Butyl 4-({5-[({5-[(5-cyanopyridin-2-yl)amino]-3-methyl-1,2-thiazol-4-yl}-carbonyl)amino]pyridin-2-yl}oxy)piperidine-1-carboxylate], the IC50 in test [1] amounted to 130 nM; in the test on HeLa, 630 nM.

For `Cc1nsc(Nc2cnc(C(F)(F)F)cn2)c1C(=O)Nc1ccc(OCCO)nc1` [Example 277, N-[6-(2-hydroxyethoxy)pyridin-3-yl]-3-methyl-5-{[5-(trifluoromethyl)pyrazin-2-yl]amino}-1,2-thiazole-4-carboxamide], the IC50 in test [1] is 10000 nM; in the test on HeLa it was 3200 nM.

With `Cc1nsc(Nc2cncc(C(F)(F)F)n2)c1C(=O)Nc1ccc(OC2CCN(CCC(F)(F)F)CC2)nc1` [Example 304, 3-methyl-5-{[6-(trifluoromethyl)pyrazin-2-yl]amino}-N-(6-{[1-(3,3,3-trifluoropropyl)piperidin-4-yl]oxy}pyridin-3-yl)-1,2-thiazole-4-carboxamide], the IC50 in test [1] worked out at 90 nM; with HeLa, 360 nM.

Consider `Cc1nsc(Nc2cnc(C(F)(F)F)cn2)c1C(=O)Nc1ccc(N(C)C)c(OCCCN(C)CCC(F)(F)F)c1` [Example 300, N-[4-(dimethylamino)-3-{3-[methyl(3,3,3-trifluoropropyl)amino]propoxy}phenyl]-3-methyl-5-{[5-(trifluoromethyl)pyrazin-2-yl]amino}-1,2-thiazole-4-carboxamide], for which the IC50 turned out to be 2000 nM in test [1] and 550 nM in the test with HeLa.

Regarding `Cc1nsc(Nc2cnc(C(F)(F)F)cn2)c1C(=O)Nc1ccc(F)c(OCC2CCN(CC(F)F)C2)c1` (stereo not drawn) [Example 316, N-(3-{[1-(2,2-difluoroethyl)pyrrolidin-3-yl]methoxy}-4-fluorophenyl)-3-methyl-5-{[5-(trifluoromethyl)pyrazin-2-yl]amino}-1,2-thiazole-4-carboxamide], the IC50 was found to be 45 nM in test [1] and 430 nM in the test with HeLa.

As for `Cc1nsc(Nc2cnc3ccccc3n2)c1C(=O)Nc1cccc(NS(=O)(=O)C2CN(CCF)C2)c1` [Example 287, N-[3-({[1-(2-fluoroethyl)azetidin-3-yl]sulfonyl}amino)phenyl]-3-methyl-5-(quinoxalin-2-ylamino)-1,2-thiazole-4-carboxamide], the IC50 in test [1] is 8200 nM; with HeLa, 9900 nM.

With `Cc1nsc(Nc2cnc3ccccc3n2)c1C(=O)Nc1cccc(NS(=O)(=O)C2CCN(CC(F)(F)F)CC2)c1` [Example 281, 3-methyl-5-(quinoxalin-2-ylamino)-N-[3-({[1-(2,2,2-trifluoroethyl)piperidin-4-yl]sulfonyl}amino)phenyl]-1,2-thiazole-4-carboxamide], the IC50 in test [1] amounted to 3900 nM; in the test with HeLa, 8000 nM.

For the molecule `Cc1nsc(Nc2cnc(C(F)(F)F)cn2)c1C(=O)Nc1ccc(OCCNCC(F)(F)F)nc1` [Example 322, 3-methyl-N-(6-{2-[(2,2,2-trifluoroethyl)amino]ethoxy}pyridin-3-yl)-5-{[5-(trifluoromethyl)pyrazin-2-yl]amino}-1,2-thiazole-4-carboxamide], the values for the IC50 (in test [1]; with HeLa) were 150 nM and 690 nM, respectively.

For the molecule `Cc1nsc(Nc2cnc(C(F)(F)F)cn2)c1C(=O)Nc1ccc(F)c(OCC2CCN(CC(F)F)CC2)c1` [Example 308, N-(3-{[1-(2,2-difluoroethyl)piperidin-4-yl]methoxy}-4-fluorophenyl)-3-methyl-5-{[5-(trifluoromethyl)pyrazin-2-yl]amino}-1,2-thiazole-4-carboxamide], the IC50 in test [1] is 51 nM; with HeLa, 340 nM.

For the molecule `Cc1nsc(Nc2cnc(C(F)(F)F)cn2)c1C(=O)Nc1ccc(C(=O)NC2CN(CC(F)(F)F)C2)cc1` [Example 270, 3-methyl-N-(4-{[1-(2,2,2-trifluoroethyl)azetidin-3-yl]carbamoyl}phenyl)-5-{[5-(trifluoromethyl)pyrazin-2-yl]amino}-1,2-thiazole-4-carboxamide], the IC50 in test [1] is 10000 nM; in the test on HeLa, more than 10000 nM.

On to `Cc1nsc(Nc2cnc(C(F)(F)F)cn2)c1C(=O)Nc1ccc(N(C)C)c(OCCCN(C)CC(F)(F)F)c1` [Example 299, N-[4-(dimethylamino)-3-{3-[methyl(2,2,2-trifluoroethyl)amino]propoxy}phenyl]-3-methyl-5-{[5-(trifluoromethyl)pyrazin-2-yl]amino}-1,2-thiazole-4-carboxamide], for which the IC50 in test [1] was found to be 190 nM; in the test on HeLa, 260 nM.

For `Cc1nsc(Nc2cc(C#N)ccn2)c1C(=O)Nc1ccc(OC2CCN(CC(F)(F)F)CC2)nc1` [Example 25, 5-[(4-Cyanopyridin-2-yl)amino]-3-methyl-N-(6-{[1-(2,2,2-trifluoroethyl)piperidin-4-yl]oxy}pyridin-3-yl)-1,2-thiazole-4-carboxamide], the IC50 was determined as 66 nM in test [1] and 2100 nM with HeLa.

In the case of `Cc1nsc(Nc2cnc(C(F)(F)F)cn2)c1C(=O)Nc1ccc(OC2CCN(CC(F)(F)F)C2)nc1` (stereo not drawn) [Example 297, 3-methyl-N-(6-{[1-(2,2,2-trifluoroethyl)pyrrolidin-3-yl]oxy}pyridin-3-yl)-5-{[5-(trifluoromethyl)pyrazin-2-yl]amino}-1,2-thiazole-4-carboxamide], the IC50 in test [1] was 56 nM; with HeLa, 350 nM.

`Cc1nsc(Nc2cnc(C(F)(F)F)cn2)c1C(=O)Nc1ccc(OC2CCN(CCF)C2)nc1` (stereo not drawn) [Example 295, N-(6-{[1-(2-fluoroethyl)pyrrolidin-3-yl]oxy}pyridin-3-yl)-3-methyl-5-{[5-(trifluoromethyl)pyrazin-2-yl]amino}-1,2-thiazole-4-carboxamide]: the figures for the IC50 (in test [1]; in the test on HeLa) were 1200 nM and 380 nM, respectively.

Regarding `Cc1nsc(Nc2ccc(C#N)cn2)c1C(=O)Nc1cccc(C(=O)NC2CC2)c1` [Example 250, 5-[(5-cyanopyridin-2-yl)amino]-N-[3-(cyclopropylcarbamoyl)phenyl]-3-methyl-1,2-thiazole-4-carboxamide], the results for the IC50 (in test [1]; in the test on HeLa) were 4700 nM and more than 10000 nM, respectively.

As to `COC(=O)CCc1cccc(NC(=O)c2c(C)nsc2Nc2cnc3ccccc3n2)c1` [Example 257, methyl 3-[3-({[3-methyl-5-(quinoxalin-2-ylamino)-1,2-thiazol-4-yl]carbonyl}amino)phenyl]propanoate], the IC50 in test [1] stood at 2700 nM; in the test on HeLa, 7700 nM.

Consider `CCNC(=O)c1cccc(NC(=O)c2c(C)nsc2Nc2ccc(C#N)cn2)c1` [Example 252, 5-[(5-cyanopyridin-2-yl)amino]-N-[3-(ethylcarbamoyl)phenyl]-3-methyl-1,2-thiazole-4-carboxamide], for which the IC50 in test [1] was 120 nM; in the test on HeLa it was more than 10000 nM.
